In patent US11897875B2, “Deuterated Alpha5 subunit-selective negative allosteric modulators of gamma-aminobutyric acid type a receptors as fast acting treatment for depression and mood disorders” (UNIVERSITY OF MARYLAND, BALTIMORE, priority 2017, dated 2024):

How the values were obtained:
[1] = test system: rats subjected to chronic multimodal stress; test: sucrose preference test in rats under chronic multimodal stress; format: in vivo, rat; settings: for sucrose preference (sucrose solution consumed as percentage of total): single injection, NCGC-43 3 mg/kg or ketamine 20 mg/kg, 24 hours, 7 days, 14 days after injection, stress continued
Protocol: In the sucrose preference test, rats were given an overnight two bottle choice task (in which the sucrose solution consumption is shown as a percentage of the total solution consumed) before commencing stress (baseline), immediately after 14 days of chronic multimodal stress, and 24 hours, 7 days, and 14 days after an injection of NCGC-43 (3 mg/kg, gray), ketamine (20 mg/kg, orange), or vehicle (DMSO solution, blue), all while continuing with daily chronic multimodal stress. A control group received neither stress nor drug (yellow).

[2] = test system: rats subjected to chronic multimodal stress; test: social interaction test in rats after chronic multimodal stress; format: in vivo, rat; settings: single injection, NCGC-43 3 mg/kg or ketamine 20 mg/kg; 24 hours after injection
Protocol: […] In the social interaction test, rats were given a choice between spending time in a chamber with a novel caged juvenile rat and a chamber with an empty cage before commencing stress (baseline), immediately after 14 days of chronic multimodal stress, and 24 hours after an injection of NCGC-43 (3 mg/kg, gray), ketamine (20 mg/kg, orange), or vehicle (DMSO solution, blue). Social interaction computed as percent time spent with the novel animal. A control group received neither stress nor drug (yellow).

[3] = test system: rats subjected to chronic multimodal stress; test: open field test; format: in vivo, rat; settings: 3 mg/kg
Protocol: FIG. 4A is a schematic of the open field test. […] Behavioral measurements were made before commencing stress (baseline), immediately after 14 days of chronic multimodal stress, and 24 hours after an injection of NCGC-43 (3 mg/kg) or vehicle (DMSO solution).

[4] = test system: naïve rats and rats subjected to 14 days of chronic multimodal stress; test: forced swim test; format: in vivo, rat; settings: for time the animals spent immobile / latency until the animals ceased to struggle and become immobile: NCGC-43 3 mg/kg or ketamine 20 mg/kg, 24 hours after injection; for time the animals spent immobile: vs stressed animals given vehicle (FIG. 6A); for latency until the animals ceased to struggle and become immobile: vs stressed animals given vehicle (FIG. 6B)
Description: NCGC-43 and ketamine both exert an antidepressant-like response in this test. […] See also FIG. 6C and FIG. 6D.

[5] = metabolic stability in rat hepatocytes in vitro; format: in vitro ADME; settings: rat liver hepatocytes
Description: (§1) Table 1, below, presents data regarding the half-life of […] in rat and human liver hepatocytes, in vitro, showing an increase in half-life for the deuterated compounds. Stability improved more in human hepatocytes compared to rat hepatocytes, with variation between the hepatocyte studies. […] Longer half-life also allows less frequent dosing. […] Deuteration preferably is located at the site of metabolism, since installing deuterium atoms at the site of metabolism more readily increases the half-life of the compound.

rat liver hepatocytes = test: metabolic stability in rat hepatocytes in vitro; format: in vitro ADME; settings: 3 hours
Description: as §1

human liver hepatocytes = test: metabolic stability in human hepatocytes in vitro; format: in vitro ADME
Description: as §1

[6] = metabolic stability in human hepatocytes in vitro; format: in vitro ADME; settings: human liver hepatocytes; human hepatocytes in vitro
Description: as §1

[7] = as a nootropic; cited from earlier work
[8] = test system: rats subjected to chronic multimodal stress; test: elevated plus maze; format: in vivo, rat; settings: NCGC-43 3 mg/kg or ketamine 20 mg/kg; 24 hours after injection
Protocol: In the elevated plus maze, rats were given a choice between spending time in one of two arms of an elevated cross-shaped maze (one arm closed and the other arm open), immediately after 14 days of chronic multimodal stress, and 24 hours after an injection of NCGC-43 (3 mg/kg) or ketamine (20 mg/kg). A control group was unstressed and received a vehicle injection (DMSO).

| Compound | antidepressant effects compared with ketamine ([1]; NCGC-43 3 mg/kg vs ketamine 20 mg/kg) | sucrose preference (sucrose solution consumed as percentage of total) [1] | social interaction (percent time spent with the novel animal) [2] | overall locomotor activity ([3]; 24 hours after injection (FIG. 4B)) | time spent in the corners and sides ([3]; 24 hours after injection (FIG. 4C)) | ratio of time spent in the center of the chamber to time spent in the corners/sides ([3]; 24 hours after injection (FIG. 4D)) | latency before the animals first entered the center of the chamber ([3]; 24 hours after injection (FIG. 4E)) | time course of effect (responses at 1 hour and 24 hours) ([4]; 3 mg/kg, 1 hour vs 24 hours after injection) | time the animals spent immobile [4] | latency until the animals ceased to struggle and become immobile [4] | latency to immobility, dose-response ([4]; intraperitoneal, increasing doses, 1 or 24 hours after injection (FIG. 7)) | half-life [5] | Percentage Remaining at 3 Hours (rat liver hepatocytes) | Half-life (hours) (human liver hepatocytes; human hepatocytes in vitro) | Percentage Remaining at 3 Hours (human liver hepatocytes; human hepatocytes in vitro) | metabolic stability compared with non-deuterated RG-1662 (human liver hepatocytes; rat and human hepatocytes in vitro, improved more in human) | half-life [6] | efficacy in phase II clinical trials [7] | safety in phase II clinical trials [7] | percent of time spent in the closed arm [8] |
| --- | --- | --- | --- | --- | --- | --- | --- | --- | --- | --- | --- | --- | --- | --- | --- | --- | --- | --- | --- | --- |
| [2H]C([2H])([2H])c1onc(-c2ccc(F)cc2)c1COc1ccc(C(=O)N2CCS(=O)(=O)CC2)cn1 [NCGC-43, (1,1-dioxidothiomorpholino)(6-((3-(4-fluorophenyl)-5-(methyl-d3)isoxazol-4-yl)methoxy)pyridin-3-yl)methanone] | comparable to ketamine | restored sucrose preference in a rapid (within 24 hours) and persistent (up to 14 days) manner | restored their preference for interacting with a novel animal | neither chronic stress nor injection of NCGC-43 or vehicle had any significant effects | neither chronic stress nor injection of NCGC-43 or vehicle had any significant effects | neither chronic stress nor injection of NCGC-43 or vehicle had any significant effects | mildly decreased the latency | rapid and persistent effects similar to those described previously for ketamine | a decrease in the time the animals spent immobile | an increase in the latency | significant efficacy at 1 and 3 mg/kg | 38.4 min | 3.9% | Stable | 100% | more metabolically stable | – | – | – | – |
| Cc1onc(-c2ccc(F)cc2)c1COc1ccc(C(=O)N2CCS(=O)(=O)CC2)cn1 [RG-1662, (1,1-Dioxidothiomorpholino)(6-((3-(4-fluorophenyl)-5-methylisoxazol-4-yl)methoxy)pyridin-3-yl)methanone, reference compound] | – | – | – | – | – | – | – | – | – | – | – | 36 min | 3.3% | – | 83.7% | – | 720 min | not efficacious | safe | – |
| CNC1(c2ccccc2Cl)CCCCC1=O (stereo not drawn) [ketamine, reference compound] | – | restored sucrose preference in a rapid (within 24 hours) and persistent (up to 14 days) manner | restored their preference for interacting with a novel animal | – | – | – | – | – | a decrease in the time the animals spent immobile | an increase in the latency | – | – | – | – | – | – | – | – | – | increased the percent of time the rat spent in the closed arm |
